Reference: patent US11254690B2, “PTEFb inhibiting macrocyclic compounds” (BAYER AKTIENGESELLSCHAFT, priority 2017, dated 2022)

How the values were obtained:
Assay type in all cases: cell-based
B16F10 cells = experiment: Proliferation assay, B16F10; conditions: Mus musculus, B16-F10, 96 h; 4 days, crystal violet; read-out: Inhibition of B16F10 cell proliferation IC50
Description: (§1) Cultivated tumour cells (HeLa, human cervical tumour cells, ATCC CCL-2; NCI-H460, human non-small cell lung carcinoma cells, ATCC HTB-177; DU 145, hormone-independent human prostate carcinoma cells, ATCC HTB-81; HeLa-MaTu-ADR, multidrug-resistant human cervical carcinoma cells, EPO-GmbH Berlin; Caco-2, human colorectal carcinoma cells, ATCC HTB-37; B16F10, mouse melanoma cells, ATCC CRL-6475) were plated at a density of 5,000 cells/well (DU145, HeLa-MaTu-ADR), 3,000 cells/well (NCI-H460, HeLa), 1,500 cells/well (Caco-2), or 1,000 cells/well (B16F10) in a 96-well multititer plate in 200 μL of their respective growth medium supplemented 10% fetal calf serum. After 24 hours, the cells of one plate (zero-point plate) were stained with crystal violet (see below), while the medium of the other plates was supplemented with the test substances in various concentrations (0 μM, as well as in the range of 0.0001-10 μM; the final concentration of the solvent dimethyl sulfoxide was adjusted to 0.1%) using a Hewlett-Packard HP D300 Digital Dispenser. The cells were incubated for 4 days in the presence of test substances. Cell proliferation was determined by staining the cells with crystal violet: the cells were fixed by adding 20 μl/measuring point of an 11% glutaric aldehyde solution for 15 minutes at room temperature. After three washing cycles of the fixed cells with water, the plates were dried at room temperature. The cells were stained by adding 100 μl/measuring point of a 0.1% crystal violet solution (pH 3.0). After three washing cycles of the stained cells with water, the plates were dried at room temperature. The dye was dissolved by adding 100 μl/measuring point of a 10% acetic acid solution. The extinction was determined by photometry at a wavelength of 595 nm. The change of cell number, in percent, was calculated by normalization of the measured values to the extinction values of the zero-point plate (=0%) and the extinction of the untreated ([…]) cells (=100%). The IC50 values (inhibitory concentration at 50% of maximal effect) were determined by means of a 4 parameter fit. A2780 human ovarian carcinoma cells (ECACC #93112519) and non-adherent MOLM-13 human acute myeloid leukemia cells (DSMZ ACC 554) were seeded at a density of 3,000 cell/well (A2780) or 5,000 cells/well (MOLM-13) in a 96-well multititer plate in 150 μL of growth medium supplemented 10% fetal calf serum. After 24 hours, cell viability of one plate (zero-point plate) was determined with the Cell Titre-Glo Luminescent Cell Viability Assay (Promega), while the medium of the other plates was supplemented with the test substances in various concentrations (0 μM, as well as in the range of 0.0001-10 μM; the final concentration of the solvent dimethyl sulfoxide was adjusted to 0.1%) using a Hewlett-Packard HP D300 Digital Dispenser. Cell viability was assessed after 72-hour exposure with the Cell Titre-Glo Luminescent Cell Viability Assay (Promega). IC50 values (inhibitory concentration at 50% of maximal effect) were determined by means of a 4 parameter fit on measurement data which were normalized to vehicle (DMSO) treated cells (=100%) and measurement readings taken immediately before compound exposure (=0%).

HeLa cells = experiment: Proliferation assay, HeLa; conditions: Homo sapiens, 96 h, 4 days, crystal violet, read-out: Inhibition of HeLa cell proliferation IC50
Description: as §1

DU145 cells = experiment: Proliferation assay, DU145; conditions: Homo sapiens, DU-145, 96 h; 4 days, crystal violet; read-out: Inhibition of DU145 cell proliferation IC50
Description: as §1

MOLM-13 cells = experiment: Proliferation assay, MOLM-13; conditions: Homo sapiens, 72-hour exposure, Cell Titre-Glo, read-out: Inhibition of MOLM-13 cell proliferation IC50
Description: as §1

Structure (SMILES) | IC50 (B16F10 cells) [nM] | IC50 (HeLa cells) [nM] | IC50 (DU145 cells) [nM] | IC50 (MOLM-13 cells) [nM]
CS(=N)(=O)Cc1cc2cc(c1)OCCCCOc1cc(ccc1F)-c1nc(ncc1F)N2 (racemic) [Example 4, (rac)-3,20-difluoro-10-[(S-methylsulfonimidoyl)methyl]-13,18-dioxa-5,7,25-triazatetracyclo[17.3.1.1^2,6.1^8,12]pentacosa-1(23),2(25),3,5,8(24),9,11,19,21-nonaene] | 176 | 150 | 138 | 20
CS(=N)(=O)Cc1cc2cc(c1)OCCCCOc1c(F)ccc(c1F)-c1nc(ncc1F)N2 (racemic) [Example 8, (rac)-3,20,23-trifluoro-10-[(S-methylsulfonimidoyl)methyl]-13,18-dioxa-5,7,25-triazatetracyclo[17.3.1.1^2,6.1^8,12]pentacosa-1(23),2(25),3,5,8(24),9,11,19,21-nonaene] | 224 | 177 | 196 | 45
CS(=N)(=O)Cc1cc2cc(c1)OCCCOc1cc(ccc1F)-c1nc(ncc1F)N2 (racemic) [Example 10, (rac)-3,19-difluoro-10-[(S-methylsulfonimidoyl)methyl]-13,17-dioxa-5,7,24-triazatetracyclo[16.3.1.1^2,6.1^8,12]tetracosa-1(22),2(24),3,5,8(23),9,11,18,20-nonaene] | 209 | 128 | 180 | 33
CS(=N)(=O)Cc1cc2cc(c1)OCCCCCOc1cc(ccc1F)-c1nc(ncc1F)N2 (racemic) [Example 6, (rac)-3,21-difluoro-10-[(S-methylsulfonimidoyl)methyl]-13,19-dioxa-5,7,26-triazatetracyclo[18.3.1.1^2,6.1^8,12]hexacosa-1(24),2(26),3,5,8(25),9,11,20,22-nonaene] | 171 | 199 | 121 | 140
CS(=N)(=O)Cc1cc2nc(c1)OCCCCOc1cc(ccc1F)-c1cc(ncc1F)N2 (racemic) [Example 2, (rac)-3,20-difluoro-10-[(S-methylsulfonimidoyl)methyl]-13,18-dioxa-5,7,24-triazatetracyclo[17.3.1.1^2,6.1^8,12]pentacosa-1(23),2(25),3,5,8(24),9,11,19,21-nonaene] | 110 | 90 | 85 | 27

Other lines, results leading:

IC50 (B16F10 cells) [nM] | IC50 (HeLa cells) [nM] | IC50 (DU145 cells) [nM] | IC50 (MOLM-13 cells) [nM] | Structure (SMILES)
993 | 964 | 585 | 228 | CC(C)(C)OC(=O)N=S(C)(=O)Cc1cc2cc(c1)OCCCCCOc1cc(ccc1F)-c1nc(ncc1F)N2 (racemic) [Example 5, (rac)-tert-butyl [{[3,21-difluoro-13,19-dioxa-5,7,26-triazatetracyclo[18.3.1.1^2,6.1^8,12]hexacosa-1(24),2(26),3,5,8(25),9,11,20,22-nonaen-10-yl]methyl}(methyl)oxido-λ^6-sulfanylidene]carbamate]
270 | 244 | 206 | 108 | CC(C)(C)OC(=O)N=S(C)(=O)Cc1cc2cc(c1)OCCCCOc1cc(ccc1F)-c1nc(ncc1F)N2 (racemic) [Example 3, (rac)-tert-butyl [{[3,20-difluoro-13,18-dioxa-5,7,25-triazatetracyclo[17.3.1.1^2,6.1^8,12]pentacosa-1(23),2(25),3,5,8(24),9,11,19,21-nonaen-10-yl]methyl}(methyl)oxido-λ^6-sulfanylidene]carbamate]
